Experimental data from patent US20060142202A1, “Compositions and methods for targeted delivery of immune response modifiers” (3M Innovative Properties Company, priority 2000, published 2006).

melting point [°C]	Compound
203 to 204.6	CCOCc1nc2c(N)nc3ccccc3c2n1CC(C)(C)NC(=O)CCC(=O)NN [IRM5, N-{2-[4-Amino-2-(ethoxymethyl)-1H-imidazo[4,5-c]quinolin-1-yl]-1,1-dimethylethyl}-4-hydrazino-4-oxobutanamide]
127 to 128	CCCc1nc2c(N)nc3cc(OCCCCCCNC(=O)c4ccc(N=[N+]=[N-])cc4O)ccc3c2s1 [IRM9, N-{6-[(4-Amino-2-propyl[1,3]thiazolo[4,5-c]quinolin-7-yl)oxy]hexyl}-4-azido-2-hydroxybenzamide]
